Where two headings read alike, the source gives them in different places.
Experiments:
[1] = test system: Human H4 neuroglioma cells expressing wild-type APP695 protein or CTF105; assay: Cell-based screens for amyloid-β modulation (H4 cells, ELISA); settings: for EC50: Homo sapiens, cellular dose-response
Text: Photoaffinity labelling. All experiments used the following general protocol. […] Cell-based screens for amyloid-β modulation. […] Statistical analysis.

APP-CTF = target: T1, APP-CTF (Homo sapiens, UniProt P05067); assay: Photoaffinity labelling of APP and APP CTF in H4 cell membrane fractions and competition; assay type: binding; settings: photoprobe 25 μM, competitor 200 μM
T1 construct: this protein was designated α-secretase-derived APP CTF (CTF83) on the basis of molecular weight; expressed in transfected cells
T1 sequence (P05067 688-770 limits assumed): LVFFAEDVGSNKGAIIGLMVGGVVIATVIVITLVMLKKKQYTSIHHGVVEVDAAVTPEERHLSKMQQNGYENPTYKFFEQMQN
Procedure: Photoaffinity labelling. All experiments used the following general protocol. Samples (recombinant or synthetic peptides, cell lysates and membrane preparations) were exposed in borosilicate test tubes to ultraviolet light (350 nm) in a Rayonet Photoreactor R100 (RPR-3500 lamps, Southern New England Ultra Violet Company) in a cold room (4° C.) for 30 minutes or as otherwise noted. Crosslinked samples were analyzed by ELISA for biotin incorporation, or analyzed directly by SDS-PAGE (Criterion-XT, Bio-Rad), or after precipitation with streptavidin ultralink plus beads (Pierce). After immunblotting, proteins were detected using chemiluminesence (ECL Plus, GEHealthcare) or near-infrared fluorescence (LiCor Odyssey). Full-length APP and APP CTFs (CTF83, CTF99) were detected with CT20, a rabbit polyclonal antibody against the C-terminus of APP. Biotin was detected with an affinity-purified rabbit polyclonal antibody (Bethyl). Cell-based screens for amyloid-β modulation.

H4 APPwt cells = assay: Immunoprecipitation-mass spectrometry of media from H4 APPwt cells; assay type: cell-based, human
Procedure: FIG. 14. Amyloid binding compounds alter the cleavage of Aβ similar to other established γ-secretase modulators Immunoprecipitation-mass spectrometry studies were conducted on media from H4 APPwt cells grown in the presence of test compounds for 16 hours. Conditions were: control (DMSO, 0.5%), sulindac sulfide (SS; 25 μM), chrysamine g (CG; 25 μM), and X-34 (25 μM). SS was included as a control GSM known to reduce Aβ42 and increase Aβ38. Spectra shown are representative of two experiments with 2-3 replicates each. Identified Aβ peptides based on calculated mass (m/z) are indicated above the peaks.

γ-secretase = γ-secretase (Homo sapiens, UniProt P49768); assay: GSM activity of compounds that bind Aβ or Aβ amyloid (cell-based or cell-free γ-secretase assays, FIG. 12); settings: two doses (10 and 100 μM)
Procedure: A literature search was performed to identify compounds reported to bind to the Aβ peptide directly or amyloid. These candidates were initially tested in cell-based assays or cell-free in vitro γ-secretase assays at two doses (10 and 100 μM).
Finally, X-34 was tested for its ability to modulate Aβ42 amounts in an APP transgenic mouse (Tg2576).

EC50 ([1]; read-out: EC50, lowering of Aβ40): 60.7 µM
EC50 ([1]; read-out: EC50, lowering of Aβ42): 13.7 µM
competition of APP-CTF labeling by Fen-B and Flurbi-BpB (APP-CTF): decreases labeling of APP-CTF
GSM activity (γ-secretase): Aβ42-lowering
Structure (SMILES): O=C(O)c1cc(C=Cc2ccc(C=Cc3ccc(O)c(C(=O)O)c3)cc2)ccc1O [X-34, 1,4-bis(3-carboxy-4-hydroxyphenylethenyl)-benzene]
total amyloid-β amounts [1]: did not decrease
Aβ42 levels ([1]; H4 cells expressing APP): decrease
shorter amyloid-β (IP-MS) (H4 APPwt cells): increased amounts of shorter amyloid-β
Aβ33 levels (IP-MS) (H4 APPwt cells; 25 μM, 16 hours): raise Aβ33 levels more effectively than SS
levels of Aβ42 (IP-MS) (H4 APPwt cells; 25 μM, 16 hours): consistently decrease levels of Aβ42

Reference: patent publication US20110021471A1, “REDUCING Abeta42 LEVELS AND Abeta AGGREGATION” (priority 2007, published 2011)
